Legend:
[1] = target: E. coli leader peptidase (Escherichia coli, UniProt P00803); conditions: cited from earlier work
[2] = target: T1, Decanoyl-[…]OH
T1 chain: LTPTAKAASKIDD

[3] = target: T2, Octanoyl-[…]OH
T2 chain: LTPTAKAASKIDD

Chain of E. coli leader peptidase (P00803 whole entry): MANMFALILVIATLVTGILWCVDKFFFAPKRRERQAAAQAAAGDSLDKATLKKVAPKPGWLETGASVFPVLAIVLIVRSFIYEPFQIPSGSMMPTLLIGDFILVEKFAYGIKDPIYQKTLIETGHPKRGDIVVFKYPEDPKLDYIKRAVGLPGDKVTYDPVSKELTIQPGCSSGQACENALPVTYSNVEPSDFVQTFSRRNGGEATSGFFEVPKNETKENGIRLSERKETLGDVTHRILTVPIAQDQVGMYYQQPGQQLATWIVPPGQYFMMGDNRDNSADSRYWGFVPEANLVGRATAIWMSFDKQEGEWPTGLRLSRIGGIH

**Q.** Which rate of turnover ([1]; Dev et al) does the source give for ALAKI here?
**A.** very slow

**Q.** Which rate of cleavage ([1]; versus parent M13 procoat protein, Dierstein and Wickner) does the source give for ASVAVATLVPMLSFAAEGDDPAK here?
**A.** comparable to that of the parent

B1: S. aureus SpsB signal peptidase (protein)
chain: MKKELLEWIISIAVAFVILFIVGKFIVTPYTIKGESMDPTLKDGERVAVNIIGYKTGGLEKGNVVVFHANKNDDYVKRVIGVPGDKVEYKNDTLYVNGKKQDEPYLNYNLKHKQGDYITGTFQVKDLPNANPKSNVIPKGKYLVLGDNREVSKDSRAFGLIDEDQIVGKVSFRFWPFSEFKHNFNPENTKN
**Q.** For B1, which “processing after 30 minutes (HPLC/MS cleavage assay)” value [2] is on record?
**A.** >80% processing after 30 minutes

**Q.** And the “processing after 30 minutes (HPLC/MS cleavage assay)” value [3]?
**A.** >80% processing after 30 minutes

From patent US20040024178A1, “Bacterial signal peptidase inhibitors and uses thereof” (priority 1999, published 2004)
